Measured values published in the supplement of paper PMC11208160.

Experiment: recombinant barcode read abundance after kanamycin selection (control-corrected) (log10(CPM+1)); higher = more efficient recombination; sequences stand for … in AGTGCAGAGAAAATCGGCCAGTTTTCTCTGCCTGCAGTCCGCATGCCGT…AGATTTATGCAGCGGACTGCCTTTCTCCCAAAGTGATAAACCGGACAGTATCATGGACCGGTTTTCCCGGTAATCCGTATTTGCAAGGTTGGTTTCACT; site = the 11-nt target
In short: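 Oligos holding a promoter, target, barcode and the J23119-driven first 104 bases of the bridge RNA were Gibson-cloned into a vector that supplied the other 73 bp plus a T7-inducible recombinase. This library was co-electroporated with a donor plasmid into E. coli. Two replicates went on chloramphenicol/ampicillin LB agar (control) and two on chloramphenicol/ampicillin/kanamycin with 0.1 mM IPTG. Recombination efficiency is read from averaged, control-corrected barcode counts per million at recombinant junctions, reported as log10(CPM+1).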
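Note: IS621 recombinase and bridge RNA in Escherichia coli cells.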

| Sequence | recombinant barcode read abundance (log10) |
| --- | --- |
| AGTCCCGCTTGGGTTCTAACCTGTTGCCA (site AGTCCCGCTTG) | 1.67 |
| AGTCCCGCTTGGGTTCTAACCTGTTGCCA (site GCATATACTAC) | 0.212 |
| AGTCCTACTTGGGTTCTAACCTGTTGCAG (site AGGCTTACTCT) | 0.234 |
| AGTCCTACTTGGGTTCTAACCTGTTGCAG (site AGTCCTACTCT) | 0.794 |
| AGTCGGACTTGGGTTCTAACCTGTTGCAC (site AGTCGGACTGT) | 0.846 |
| AGTCGGACTTGGGTTCTAACCTGTTGCAC (site CACGATCCTAA) | 0.0668 |
| AGTCTCGCTTGGGTTCTAACCTGTTGCGG (site AGTATCGCTCC) | 0.0167 |
| AGTCTCGCTTGGGTTCTAACCTGTTGCGG (site AGTCTCGCTCC) | 0.345 |
| AGTCTCGCTTGGGTTCTAACCTGTTGCGG (site AGTGTCGCTCC) | 0.0171 |
| AGTCTCGCTTGGGTTCTAACCTGTTGCGG (site AGTTTCGCTCC) | 0.0153 |
| AGTCTCTCTTGGGTTCTAACCTGTTGCCT (site AGTCTCTCTAG) | 0.688 |
| AGTCTCTCTTGGGTTCTAACCTGTTGCCT (site AGTGACTCTAG) | 0.0251 |
| AGTCTCTCTTGGGTTCTAACCTGTTGCTA (site AGTCTCTCTCG) | 0.128 |
| AGTCTCTCTTGGGTTCTAACCTGTTGCTA (site AGTCTCTCTTA) | 1.21 |
| AGTGAAGCTTGGGTTCTAACCTGTTGCAC (site AGTGAAGCTGT) | 2.33 |
| AGTGAAGCTTGGGTTCTAACCTGTTGCAC (site CACTTCCCTTC) | 0.298 |
| AGTGAGCCTTGGGTTCTAACCTGTTGCCT (site AGTAAGCCTAG) | 0.344 |
| AGTGAGCCTTGGGTTCTAACCTGTTGCCT (site AGTCAGCCTAG) | 0.0584 |
| AGTGAGCCTTGGGTTCTAACCTGTTGCCT (site AGTGAGCCTAG) | 1.26 |
| AGTGAGCCTTGGGTTCTAACCTGTTGCCT (site AGTTAGCCTAG) | 0.0633 |
| AGTGGACCTTGGGTTCTAACCTGTTGCCC (site AGTGGACCTGG) | 1.86 |
| AGTGGACCTTGGGTTCTAACCTGTTGCCC (site TCCCATACTAT) | 0.0634 |

| Sequence | recombinant barcode read abundance (log10) |
| --- | --- |
| AGTGGAGCTTGGGTTCTAACCTGTTGCCT (site AGGGGATCTAG) | 0.0601 |
| AGTGGAGCTTGGGTTCTAACCTGTTGCCT (site AGTGGAGCTAG) | 2.27 |
| AGTGGGACTTGGGTTCTAACCTGTTGCCA (site AGTGGGACTTG) | 1.56 |
| AGTGGGACTTGGGTTCTAACCTGTTGCCA (site GGTGAGACTTG) | 0.0594 |
| AGTTAGTCTTGGGTTCTAACCTGTTGCCA (site AGTCAGTCTTG) | 0.0961 |
| AGTTAGTCTTGGGTTCTAACCTGTTGCCA (site AGTTAGTCTTG) | 0.0604 |
| AGTTCGACTTGGGTTCTAACCTGTTGCCT (site AATTCGACTAG) | 0.0143 |
| AGTTCGACTTGGGTTCTAACCTGTTGCCT (site ACTTCGACTAG) | 0.0163 |
| AGTTCGACTTGGGTTCTAACCTGTTGCCT (site AGTTCGACTAG) | 0.429 |
| AGTTCGACTTGGGTTCTAACCTGTTGCCT (site ATTTCGACTAG) | 0.234 |
| AGTTCGCCTTGGGTTCTAACCTGTTGCTA (site AGTGCGCCTTA) | 0.317 |
| AGTTCGCCTTGGGTTCTAACCTGTTGCTA (site AGTTCGCCTTA) | 0.012 |
| AGTTGGCCTTGGGTTCTAACCTGTTGCAG (site AGTTGGCCTCT) | 0.39 |
| AGTTGGCCTTGGGTTCTAACCTGTTGCAG (site CTAACTACTAA) | 0.313 |
| AGTTGGGCTTGGGTTCTAACCTGTTGCTG (site AGCTGGGCTCC) | 0.154 |
| AGTTGGGCTTGGGTTCTAACCTGTTGCTG (site AGTTGGGCTCA) | 1.02 |
| ATAAAACCTTGGGTTCTAACCTGTTGCCT (site ATAAAACCTAG) | 1.23 |
| ATAAAACCTTGGGTTCTAACCTGTTGCCT (site CTAAAACCTAG) | 0.64 |
| ATAAAACCTTGGGTTCTAACCTGTTGCCT (site GTAAAACCTAG) | 0.114 |
| ATAAAACCTTGGGTTCTAACCTGTTGCCT (site TTAAAACCTAG) | 0.244 |
| ATAAAGCCTTGGGTTCTAACCTGTTGCCT (site ATAAAGCCTAG) | 2.05 |
| ATAAAGCCTTGGGTTCTAACCTGTTGCCT (site ATAAGGCCTAG) | 0.0177 |

| Sequence | recombinant barcode read abundance (log10) |
| --- | --- |
| ATAAATCCTTGGGTTCTAACCTGTTGCCT (site ATAAATCCTAG) | 0.632 |
| ATAAATCCTTGGGTTCTAACCTGTTGCCT (site CTAAATCCTAG) | 0.126 |
| ATAAATCCTTGGGTTCTAACCTGTTGCCT (site GTAAATCCTAG) | 0.0609 |
| ATAAATCCTTGGGTTCTAACCTGTTGCCT (site TTAAATCCTAG) | 0.0804 |
| ATAACTACTTGGGTTCTAACCTGTTGCCA (site ATAACTACTTG) | 0.462 |
| ATAACTACTTGGGTTCTAACCTGTTGCCA (site ATGTCTACTTG) | 0.299 |
| ATACAATCTTGGGTTCTAACCTGTTGCCT (site ATACAATCTAG) | 1.13 |
| ATACAATCTTGGGTTCTAACCTGTTGCCT (site CTACAATCTAG) | 0.127 |
| ATACAATCTTGGGTTCTAACCTGTTGCCT (site GTACAATCTAG) | 0.0425 |
| ATACAATCTTGGGTTCTAACCTGTTGCCT (site TTACAATCTAG) | 0.202 |
| ATACCATCTTGGGTTCTAACCTGTTGCCT (site ATACCATCTAG) | 0.031 |
| ATACCATCTTGGGTTCTAACCTGTTGCCT (site ATCCCATCTAG) | 0.173 |
| ATACCATCTTGGGTTCTAACCTGTTGCCT (site ATGCCATCTAG) | 0.855 |
| ATACCATCTTGGGTTCTAACCTGTTGCCT (site ATTCCATCTAG) | 0.34 |
| ATACGGACTTGGGTTCTAACCTGTTGCAG (site ATACGGACTCT) | 2.77 |
| ATACGGACTTGGGTTCTAACCTGTTGCAG (site ATATGTACTCT) | 0.198 |
| ATACGTTCTTGGGTTCTAACCTGTTGCAT (site ATACGTTCTAT) | 1.12 |
| ATACGTTCTTGGGTTCTAACCTGTTGCAT (site CAGGTCCCTCG) | 0.354 |
| ATACTAACTTGGGTTCTAACCTGTTGCCT (site AAACTAACTAG) | 0.0718 |
| ATACTAACTTGGGTTCTAACCTGTTGCCT (site ACACTAACTAG) | 0.477 |
| ATACTAACTTGGGTTCTAACCTGTTGCCT (site AGACTAACTAG) | 0.0472 |
| ATACTAACTTGGGTTCTAACCTGTTGCCT (site ATACTAACTAG) | 1.7 |

| Sequence | recombinant barcode read abundance (log10) |
| --- | --- |
| ATAGAGTCTTGGGTTCTAACCTGTTGCTT (site AGAGAGTCTAA) | 0.352 |
| ATAGAGTCTTGGGTTCTAACCTGTTGCTT (site ATAGAGTCTAA) | 2.52 |
| ATAGCAACTTGGGTTCTAACCTGTTGCCT (site ATAGCAACTAG) | 0.64 |
| ATAGCAACTTGGGTTCTAACCTGTTGCCT (site ATAGCCACTAG) | 0.11 |
| ATAGCAACTTGGGTTCTAACCTGTTGCCT (site ATAGCGACTAG) | 0.0185 |
| ATAGCAACTTGGGTTCTAACCTGTTGCCT (site ATAGCTACTAG) | 0.0705 |
| ATAGCTACTTGGGTTCTAACCTGTTGCCT (site ATAGCAACTAG) | 0.142 |
| ATAGCTACTTGGGTTCTAACCTGTTGCCT (site ATAGCCACTAG) | 0.248 |
| ATAGCTACTTGGGTTCTAACCTGTTGCCT (site ATAGCGACTAG) | 0.0534 |
| ATAGCTACTTGGGTTCTAACCTGTTGCCT (site ATAGCTACTAG) | 1.2 |
| ATAGGACCTTGGGTTCTAACCTGTTGCCG (site ATAGGACCTCG) | 2.36 |
| ATAGGACCTTGGGTTCTAACCTGTTGCCG (site ATAGGACCTTG) | 0.143 |
| ATAGGTTCTTGGGTTCTAACCTGTTGCCT (site AAAGGTTCTAG) | 0.0456 |
| ATAGGTTCTTGGGTTCTAACCTGTTGCCT (site ACAGGTTCTAG) | 0.0769 |
| ATAGGTTCTTGGGTTCTAACCTGTTGCCT (site AGAGGTTCTAG) | 0.0854 |
| ATAGGTTCTTGGGTTCTAACCTGTTGCCT (site ATAGGTTCTAG) | 1.49 |
| ATATGGACTTGGGTTCTAACCTGTTGCTA (site ATAAGGACTTA) | 0.65 |
| ATATGGACTTGGGTTCTAACCTGTTGCTA (site ATACGGACTTA) | 1.34 |
| ATATGGACTTGGGTTCTAACCTGTTGCTA (site ATAGGGACTTA) | 0.159 |
| ATATGGACTTGGGTTCTAACCTGTTGCTA (site ATATGGACTTA) | 1.62 |
